Literature values, collected in patent US12596089B2, “Devices, systems, and methods for antimicrobial susceptibility testing” (Avails Medical, Inc., priority 2022, dated 2026).

How the values were obtained:
[1] = system: CDC-650 strain of E. coli; settings: stated as known
[2] = system: CDC-846 strain of E. coli; settings: stated as known

## CO/N=C(\C(=O)N[C@@H]1C(=O)N2C(C(=O)O)=C(CSc3nc(=O)c(=O)[nH]n3C)CS[C@H]12)c1csc(N)n1 [ceftriaxone]
[1]
  susceptibility of the bacteria to the anti-infective: highly susceptible
[2]
  susceptibility of the bacteria to the anti-infective: resistant
